Patent publication US20060009432A1, “Use of neurosteroids to treat neuropathic pain” (priority 2004, published 2006)

Key:
Format in all cases: in vivo, rat
SNL rats = experiment: Thermal withdrawal (Hargreaves) in spinal nerve ligation model; conditions: 10 mg/kg i.p., thermal withdrawal test
Procedure: (§1) (A) L5/L6 spinal nerve ligation (SNL) was performed as described by Kim and Chung (Pain, 50,355-363(1992)). Animals (mice or rats) were anesthetized with halothane. An incision was made lateral to the lumbar spine. The right L5 and L6 spinal nerves were isolated and tightly ligated distal to the dorsal root ganglion. The incision was closed, and animals were allowed to recover for 10 days. Sham-operated animals were prepared in an identical fashion except that the spinal nerves were not ligated.
(§2) (B) The method of Hargreaves et al. (Pain, 32, 77-88 (1988)) was used to measure the thermal withdrawal latency in SNL rats. Animals were acclimated within Plexiglas enclosures on a clear glass plate maintained at 30° C. A radiant heat source (high-intensity projector lamp) was focused onto the plantar surface of the paw. When the paw was withdrawn, a motion detector halted the stimulus and a timer. A maximal cut-off of 40 sec for rats and 30 sec for mice was used to prevent tissue damage. Differences in responses between groups were tested by using the standard ANOVA statistical test followed by post hoc testing with Student's t test with Bonferroni's correction. Significance was defined as P<0.05.
Thermal withdrawal response was measured 15, 30, 45, 60, 90 and 120 minutes after i.p. administration of ganaxolone (at 1 mg/kg, 3 mg/kg, 6 mg/kg or 10 mg/kg). Table 3 provides the resulting measurement of thermal withdrawal in groups of five rats per dosage level.

[1] = test system: L5/L6 spinal nerve ligation (SNL) rats; experiment: Tactile allodynia (von Frey) in spinal nerve ligation model
Procedure: as §1
The protocol was repeated until three changes in behavior were determined. The maximal cut-off size values used were 15 g for rats and 3.5 g for mice. The 50% paw withdrawal threshold was determined as 10Xf+kδ/10,000, where Xf=the value of the last von Frey filament used, k=Dixon value for the positive/negative pattern, and δ=the logarithmic difference between stimuli.
Tactile allodynia response was measured 15, 30, 45, 60, 90 and 120 minutes after i.p. administration of ganaxolone (at 1 mg/kg, 3 mg/kg, 6 mg/kg or 10 mg/kg). Table 2 provides the resulting measurement of tactile allodynia response in groups of five rats per dosage level.

[2] = test system: rats receiving sham surgery; experiment: Thermal withdrawal in rats receiving sham surgery
Procedure: as §1, §2
The thermal withdrawal response was measured using the same protocol in rats receiving sham surgery. Table 4 provides the resulting measurement of thermal withdrawal in groups of five rats per dose level.

In the case of `CC(=O)[C@H]1CC[C@H]2[C@@H]3CC[C@H]4C[C@](C)(O)CC[C@]4(C)[C@H]3CC[C@]12C` [ganaxolone, 3α-hydroxy-3β-methyl-5α-pregnan-20-one], the Sedation (SNL rats) is reported as “sedated four of the five rats for about one hour”, the “% Activity ± s.e.m. (tactile allodynia)” value ([1]; 1 mg/kg i.p., 15 min, SNL rats) is reported as 2.83 ± 2.83% and the “% Activity ± s.e.m. (tactile allodynia)” value ([1]; 1 mg/kg i.p., 30 min, SNL rats) is reported as 6.35 ± 3.38%. The “% Activity ± s.e.m. (tactile allodynia)” value ([1]; 1 mg/kg i.p., 45 min, SNL rats) was 3.20 ± 2.21%, the “% Activity ± s.e.m. (tactile allodynia)” value ([1]; 1 mg/kg i.p., 60 min, SNL rats) was 2.41 ± 1.53% and the “% Activity ± s.e.m. (tactile allodynia)” value ([1]; 1 mg/kg i.p., 90 min, SNL rats) was 2.41 ± 1.53%. The “% Activity ± s.e.m. (tactile allodynia)” value ([1]; 1 mg/kg i.p., 120 min, SNL rats) was 3.06 ± 3.06%, the “% Activity ± s.e.m. (tactile allodynia)” value ([1]; 3 mg/kg i.p., 15 min, SNL rats) was 9.69 ± 4.56% and the “% Activity ± s.e.m. (tactile allodynia)” value ([1]; 3 mg/kg i.p., 30 min, SNL rats) was 13.76 ± 6.54%. The “% Activity ± s.e.m. (tactile allodynia)” value ([1]; 3 mg/kg i.p., 45 min, SNL rats) was 14.02 ± 5.14%, the “% Activity ± s.e.m. (tactile allodynia)” value ([1]; 3 mg/kg i.p., 60 min, SNL rats) was 11.56 ± 3.01% and the “% Activity ± s.e.m. (tactile allodynia)” value ([1]; 3 mg/kg i.p., 90 min, SNL rats) was 9.19 ± 2.67%. The “% Activity ± s.e.m. (tactile allodynia)” value ([1]; 3 mg/kg i.p., 120 min, SNL rats) was 9.64 ± 1.63%, the “% Activity ± s.e.m. (tactile allodynia)” value ([1]; 6 mg/kg i.p., 15 min, SNL rats) was 26.79 ± 9.34% and the “% Activity ± s.e.m. (tactile allodynia)” value ([1]; 6 mg/kg i.p., 30 min, SNL rats) was 30.85 ± 6.77%. The “% Activity ± s.e.m. (tactile allodynia)” value ([1]; 6 mg/kg i.p., 45 min, SNL rats) was 47.30 ± 14.99%, the “% Activity ± s.e.m. (tactile allodynia)” value ([1]; 6 mg/kg i.p., 60 min, SNL rats) was 34.17 ± 15.78% and the “% Activity ± s.e.m. (tactile allodynia)” value ([1]; 6 mg/kg i.p., 90 min, SNL rats) was 26.91 ± 15.45%. For the same compound, the “% Activity ± s.e.m. (tactile allodynia)” value ([1]; 6 mg/kg i.p., 120 min, SNL rats) was 9.32 ± 2.85%, the “% Activity ± s.e.m. (tactile allodynia)” value ([1]; 10 mg/kg i.p., 15 min, SNL rats) was 47.91 ± 21.86% and the “% Activity ± s.e.m. (tactile allodynia)” value ([1]; 10 mg/kg i.p., 30 min, SNL rats) was 79.27 ± 18.71%. For the same compound, the “% Activity ± s.e.m. (tactile allodynia)” value ([1]; 10 mg/kg i.p., 45 min, SNL rats) was 70.60 ± 18.42%, the “% Activity ± s.e.m. (tactile allodynia)” value ([1]; 10 mg/kg i.p., 60 min, SNL rats) was 64.61 ± 18.63% and the “% Activity ± s.e.m. (tactile allodynia)” value ([1]; 10 mg/kg i.p., 90 min, SNL rats) was 24.81 ± 9.53%. The “% Activity ± s.e.m. (tactile allodynia)” value ([1]; 10 mg/kg i.p., 120 min, SNL rats) was 4.38 ± 1.81%, the Sedation ([1]; 10 mg/kg i.p., SNL rats, tactile allodynia test) was “sedated four of the five rats for about one hour” and the “Effect on % Activity” value ([1]; summary, SNL animals) was “increases the % Activity”. For the same compound, the “% Activity (thermal withdrawal)” value ([2]; 3 mg/kg, 15 min) was 11.87 ± 7.34%, the “% Activity (thermal withdrawal)” value ([2]; 3 mg/kg, 30 min) was 3.25 ± 2.71% and the “% Activity (thermal withdrawal)” value ([2]; 3 mg/kg, 45 min) was 3.62 ± 3.62%. The “% Activity (thermal withdrawal)” value ([2]; 3 mg/kg, 60 min) was 1.98 ± 1.98%, the “% Activity (thermal withdrawal)” value ([2]; 3 mg/kg, 90 min) was 2.22 ± 1.61% and the “% Activity (thermal withdrawal)” value ([2]; 3 mg/kg, 120 min) was 1.39 ± 1.39%. The “% Activity (thermal withdrawal)” value ([2]; 6 mg/kg, 15 min) was 0.00 ± 0.00%, the “% Activity (thermal withdrawal)” value ([2]; 6 mg/kg, 30 min) was 0.00 ± 0.00% and the “% Activity (thermal withdrawal)” value ([2]; 6 mg/kg, 45 min) was 3.98 ± 3.98%. The “% Activity (thermal withdrawal)” value ([2]; 6 mg/kg, 60 min) was 2.95 ± 2.95%, the “% Activity (thermal withdrawal)” value ([2]; 6 mg/kg, 90 min) was 1.73 ± 1.73% and the “% Activity (thermal withdrawal)” value ([2]; 6 mg/kg, 120 min) was 0.41 ± 0.41%. The “% Activity (thermal withdrawal)” value ([2]; 10 mg/kg, 15 min) was 24.54 ± 19.33%, the “% Activity (thermal withdrawal)” value ([2]; 10 mg/kg, 30 min) was 22.60 ± 11.64% and the “% Activity (thermal withdrawal)” value ([2]; 10 mg/kg, 45 min) was 8.03 ± 4.26%. The “% Activity (thermal withdrawal)” value ([2]; 10 mg/kg, 60 min) was 0.65 ± 0.65%, the “% Activity (thermal withdrawal)” value ([2]; 10 mg/kg, 90 min) was 0.28 ± 0.28% and the “% Activity (thermal withdrawal)” value ([2]; 10 mg/kg, 120 min) was 0.02 ± 0.02%.
